pEC50, pIC50: −log10 of the molar value.
Tests used:
[1] = tested on: Jurkat NFκB-luciferase cells; assay: Jurkat NFκB-Luciferase Assay; type: cell-based; details: Homo sapiens; Jurkat NFκB-luciferase cells activated with anti-CD3 antibody (OKT3), 2.5 hrs at 37° C.; geometric mean; read-out: DGK NFKb Luciferase EC50
Protocol: The day after, the excess antibody was washed out five times with 100 ul/well of assay medium (RPMI supplemented with 10% fetal bovine serum) using a Biotek EL406 instrument and leaving 20 ul of residual volume in each well. Jurkat NFκB-luciferase cells (Promega #) were harvested and diluted to 1 million cells/ml in assay medium. […] Thirty microliters of medium containing the Jurkat NFκB-luciferase cells were then dispensed using a Biotek MicroFlo instrument in each well of the compound-containing plate. […] Forty microliters of One-Glo Ex (Promega) was then added to the assay mixture and luciferase activity was read on a Envision plate reader 7 minutes later.

human DGKα = human DGKα (Homo sapiens, UniProt P23743); assay: DGKα Biochemical Activity Assay (ADP-Glo); details: recombinant DGKα 1 nM, 100 μM ATP, 18:1 DAG/POPS/octylglucoside micelles, 1 hour at 25° C.; geometric mean; read-out: HTBS DGKa 1X ATP KM IC50;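 also: luminescent detection of ADP produced as DGKα phosphorylates DAG to phosphatidic acid, IC50 from four-parameter nonlinear curve fit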
human DGKα, sequence (P23743 whole entry): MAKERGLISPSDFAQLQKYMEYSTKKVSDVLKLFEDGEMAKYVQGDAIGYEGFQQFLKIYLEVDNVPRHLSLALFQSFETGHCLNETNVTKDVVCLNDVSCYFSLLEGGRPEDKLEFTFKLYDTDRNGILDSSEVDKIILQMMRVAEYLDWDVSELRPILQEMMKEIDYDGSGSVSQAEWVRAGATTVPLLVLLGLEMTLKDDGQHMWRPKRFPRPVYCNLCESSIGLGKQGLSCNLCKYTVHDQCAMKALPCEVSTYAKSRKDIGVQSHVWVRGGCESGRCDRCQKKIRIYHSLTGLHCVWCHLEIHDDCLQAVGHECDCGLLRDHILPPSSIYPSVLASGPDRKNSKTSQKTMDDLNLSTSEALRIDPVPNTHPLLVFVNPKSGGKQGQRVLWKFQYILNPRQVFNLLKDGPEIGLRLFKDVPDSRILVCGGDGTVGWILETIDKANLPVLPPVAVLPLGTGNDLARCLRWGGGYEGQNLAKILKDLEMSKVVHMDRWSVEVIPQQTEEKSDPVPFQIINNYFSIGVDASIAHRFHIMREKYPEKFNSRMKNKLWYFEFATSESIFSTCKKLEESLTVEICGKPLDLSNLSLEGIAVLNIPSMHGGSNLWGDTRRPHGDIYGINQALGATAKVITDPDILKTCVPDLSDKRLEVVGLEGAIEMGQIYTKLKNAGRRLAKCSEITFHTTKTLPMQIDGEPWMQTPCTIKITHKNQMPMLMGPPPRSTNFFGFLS

Structure (SMILES) | pEC50 [1] | pIC50 (human DGKα)
Cc1nnc2nc(N3CCCc4c(C#CC5(O)CCC5)cccc43)c3cc(F)ccc3n12 [Example 28, 1-((1-(7-fluoro-1-methyl-[1,2,4]triazolo[4,3-a]quinazolin-5-yl)-1,2,3,4-tetrahydroquinolin-5-yl)ethynyl)cyclobutan-1-ol] | 8.29 | 8.02
Cc1nnc2nc(N3CCCc4c(C#CC5(C)COC5)cccc43)c3cc(F)ccc3n12 [Example 29, 7-fluoro-1-methyl-5-(5-((3-methyloxetan-3-yl)ethynyl)-3,4-dihydroquinolin-1(2H)-yl)-[1,2,4]triazolo[4,3-a]quinazoline] | 9.18 | 8.48
Cc1nnc2nc(N3CCCc4c(C#CC5CCC5)cccc43)c3cc(F)ccc3n12 [Example 30, 5-(5-(cyclobutylethynyl)-3,4-dihydroquinolin-1(2H)-yl)-7-fluoro-1-methyl-[1,2,4]triazolo[4,3-a]quinazoline] | 9.79 | 7.83
Cc1nnc2nc(N3CCCc4c(C#CC5(C(C)(F)F)CC5)cccc43)c3cc(F)ccc3n12 [Example 31, 5-(5-((1-(1,1-difluoroethyl)cyclopropyl)ethynyl)-3,4-dihydroquinolin-1(2H)-yl)-7-fluoro-1-methyl-[1,2,4]triazolo[4,3-a]quinazoline] | 8.85 | 7.29
Cc1nnc2nc(N3CCCc4c(C#CC5CC(F)(F)C5)cccc43)c3cc(F)ccc3n12 [Example 32, 5-(5-((3,3-difluorocyclobutyl)ethynyl)-3,4-dihydroquinolin-1(2H)-yl)-7-fluoro-1-methyl-[1,2,4]triazolo[4,3-a]quinazoline] | 9.34 | 7.96
Cc1nnc2nc(N3CCCc4c(C#CC5(C)CC5)cccc43)c3c(Cl)c(F)ccc3n12 [Example 33, 6-chloro-7-fluoro-1-methyl-5-[5-[2-(1-methylcyclopropyl)ethynyl]-3,4-dihydro-2H-quinolin-1-yl]-[1,2,4]triazolo[4,3-a]quinazoline] | 8.80 | 7.37
Cc1nnc2nc(N3CCCc4c(C#CC(C)(C)C(F)F)cccc43)c3c(Cl)c(F)ccc3n12 [Example 34, 6-chloro-5-[5-(4,4-difluoro-3,3-dimethyl-but-1-ynyl)-3,4-dihydro-2H-quinolin-1-yl]-7-fluoro-1-methyl-[1,2,4]triazolo[4,3-a]quinazoline] | 9.04 | 7.52
Cc1nnc2nc(N3CCCc4c(C#CC5(C(F)F)CC5)cccc43)c3c(Cl)c(F)ccc3n12 [Example 35, 6-chloro-5-[5-[2-[1-(difluoromethyl)cyclopropyl]ethynyl]-3,4-dihydro-2H-quinolin-1-yl]-7-fluoro-1-methyl-[1,2,4]triazolo[4,3-a]quinazoline] | 8.94 | 8.26
Cc1nnc2nc(N3CCCc4c(C#CC(C)(C)C#N)cccc43)c3c(Cl)c(F)ccc3n12 [Example 36, 4-[1-(6-chloro-7-fluoro-1-methyl-[1,2,4]triazolo[4,3-a]quinazolin-5-yl)-3,4-dihydro-2H-quinolin-5-yl]-2,2-dimethyl-but-3-ynenitrile] | 8.73 | 8.00
Cc1nnc2nc(N3CCCc4c(C#CC5(C(F)(F)F)CC5)cccc43)c3c(Cl)c(F)ccc3n12 [Example 37, 6-chloro-7-fluoro-1-methyl-5-[5-[2-[1-(trifluoromethyl)cyclopropyl]ethynyl]-3,4-dihydro-2H-quinolin-1-yl]-[1,2,4]triazolo[4,3-a]quinazoline] | 8.73 | 7.19
Fc1cc(Cl)c2c(c1)c(N1CCCc3c(C#CC4(C(F)(F)F)CC4)cccc31)nc1nncn12 [Example 38, 9-chloro-7-fluoro-5-[5-[2-[1-(trifluoromethyl)cyclopropyl]ethynyl]-3,4-dihydro-2H-quinolin-1-yl]-[1,2,4]triazolo[4,3-a]quinazoline] | 8.40 | 6.90
